# Results taken from article PMC8096952, “Similar pharmacokinetics and pharmacodynamics of a new biosimilar and reference insulin aspart in healthy Chinese males” (Scientific Reports, 2021).
# Read-outs that look alike come from different tables or passages of the source. Marks after values point to notes of the source that are not given here.
# What was measured:
# C-peptide = assay: Serum C-peptide during euglycemic clamp (endogenous insulin secretion); assay type: in vivo; conditions: healthy Chinese males, single 0.2 U/kg s.c., 10-h euglycemic clamp, ELISA, mean ± SD, N = 30
# Method: The euglycemic clamp study was performed after inserting two catheters (an antecubital venous catheter for infusing 20% dextrose and a retrograde venous catheter in the hand heated in a box at 55–65℃ for measuring blood glucose). After collecting the basal blood glucose level [defined as the mean of the glucose measurement of several times (− 60, − 30, − 20, − 10 min) before dosing], the subjects received a 0.2 U/kg dose of NovoRapid or RD10046 by s.c. injection into a lifted abdominal skin-fold. Blood samples were obtained at the bedside for immediate determination of whole blood glucose concentrations and then monitored every 5 min from 0 to 240 min and every 10 min from 240 to 600 min after dosing. […]
# (§1) Whole blood glucose concentrations were tested with a glucose analyzer (Biosen C_line GP+, Neckar Healthcare. Co. Ltd., Magdeburg, Germany) using an automated glucose oxidase technique. Serum C-peptide levels were analyzed using an ELISA (Cat. No. 80‐CPTHU‐E01.1; ALPCO, Salem, NH), and plasma IAsp concentrations were assessed by means of a validated, ultra-performance liquid chromatography-tandem mass spectrometry (UPLC-MS/MS) method at Covance Laboratories in Shanghai. The ranges of quantification were 20–3000 pmol/L for C-peptide and 0.2–10 ng/mL for IAsp.
# healthy Chinese males [1] = assay: Safety evaluation (treatment-emergent adverse events); assay type: in vivo; conditions: all causalities, single 0.2 U/kg s.c., N = 30
# Description: The safety assessments included the vital signs, physical examination, laboratory tests (complete blood cell count, liver and renal function, urinalysis, etc.), 12-lead ECG, injection site reaction, hypoglycemia, and other AEs.
# healthy Chinese males [2] = assay: Euglycemic clamp pharmacodynamics (glucose infusion rate); assay type: in vivo; conditions: for Tearly,50% (time of half-maximum GIR before GIRmax) / Tlate,50% (time of half-maximum GIR after GIRmax) / Tonset (first time of blood glucose declining to target level, 0.28 mmol/L less than baseline) / tGIRmax (time of maximum glucose infusion rate) / AUCGIR,0–10h (total glucose infusion during the clamp) / GIRmax (maximum glucose infusion rate): healthy Chinese males, single 0.2 U/kg s.c., 10-h euglycemic clamp, N = 29 RD10046, 30 NovoRapid; for AUCGIR,0–10h (total glucose infusion during the clamp) / GIRmax (maximum glucose infusion rate): fasted, LOESS-smoothed GIR
# Description: (§2) There was a phase I, single-site, randomized, single-dose, two-period, crossover, euglycemic clamp study, evaluating the similarity in PK and PD of two IAsp products in healthy subjects (a new IAsp biosimilar RD10046 by HEC Pharm vs. NovoRapid by Novo Nordisk). In this study, subjects were randomly allocated to one of two treatment sequences (Fig. 1), in which they received 0.2 units/kg s.c. doses of two different IAsp products (as listed above) on two occasions.
# (§3) Subjects were admitted to the phrase I unit on day-1 of each treatment period. On day 1, subjects received a single dose of the IAsp biosimilar RD10046 or NovoRapid after an overnight fast of at least 10 h, and a euglycemic clamp procedure that lasted up to 10 h postdose was performed. Subjects were discharged when they had had carbohydrates at the end of the euglycemic clamp. An interval of 7–14 days existed between the two doses.
# (§4) The euglycemic clamp study was performed after inserting two catheters (an antecubital venous catheter for infusing 20% dextrose and a retrograde venous catheter in the hand heated in a box at 55–65℃ for measuring blood glucose). After collecting the basal blood glucose level [defined as the mean of the glucose measurement of several times (− 60, − 30, − 20, − 10 min) before dosing], the subjects received a 0.2 U/kg dose of NovoRapid or RD10046 by s.c. injection into a lifted abdominal skin-fold. Blood samples were obtained at the bedside for immediate determination of whole blood glucose concentrations and then monitored every 5 min from 0 to 240 min and every 10 min from 240 to 600 min after dosing. During the euglycemic clamp, the GIR was varied as necessary to maintain the blood glucose concentration within approximately ± 10% of the target level (defined as 0.28 mmol/L below the subject’s basal glucose level). The investigator made the GIR adjustment based on glucose measurements and experience. If the GIR fell to zero for at least 30 min, the clamp was discontinued. A 4-mL blood sample was collected at the following points for analysis of C-peptide and IAsp concentration: − 30, 0 (before dosing), 10, 20, 30, 40, 50, 60, 90, 120, 150, 180, 210, 240, 270, 300, 360, 420, 480 and 600 min. The baseline of C-peptide was defined as the mean value of two measurements at − 30 and 0 min.
# as §1
# GIR profiles were smoothed by a locally weighted regression technique (LOESS, factor 0.10) using SAS software (version 9.4). The primary glucose-lowing effectiveness endpoints were the following parameters derived from the smoothed GIR profiles during the time interval from 0 to 10 h: (1) maximal GIR (GIRmax), (2) AUC of GIR from 0 to 10 h (AUCGIR, 0–10h). The time-related parameters including the time of GIRmax (tGIRmax), the onset of time (Tonset) (defined as the first time when BG declining at least 0.28 mmol/L from baseline), the time for GIR to rise from 0 to half of GIRmax (Tearly50%), and the time for GIR to decline from GIRmax to half of GIRmax (Tlate50%) were also recorded. A similar analysis was performed for GIRmax and AUCGIR, 0–10h.
# (§5) Time-related PK/PD parameters were evaluated by a nonparametric approach based on the Hodges-Lehmann method.
# [3] = Pharmacokinetics of insulin aspart (plasma IAsp) during euglycemic clamp study; assay type: in vivo, healthy Chinese males; conditions: for t1/2: healthy Chinese males, single 0.2 U/kg s.c., fasted, plasma IAsp by UPLC-MS/MS, arithmetic mean (SD), N = 30; for Tmax: sc
# Description: as §2, §3, §4, §1
# The primary endpoint parameters of PK were shown as follows derived from time-profiles of IAsp: (1) maximal concentration of IAsp (Cmax), (2) the AUC of IAsp from 0 to 10 h (AUCIAsp, 0-10h). The time of Cmax (Tmax) and terminal half-life (t1/2) were also recorded. Those parameters mentioned above were calculated by PKsolver (version 2.0)[26]. Log-transformed AUCIAsp,0–10h and Cmax were evaluated with a linear mixed-effects model including subject as a random effect with the period, sequence, and treatment as fixed effects. For each parameter, the difference in the LS means along with the 90% CIs was back-transformed to produce the ratio of geometric means and the CI comparing treatments. The pharmacokinetic similarity was to be concluded if the 90% CIs for both AUCIAsp,0–10h and Cmax were completely contained within the interval of 0.80–1.25.
# as §5
# healthy Chinese males [4] = conditions: previous reports; cited from earlier work
# Description: (§6) The maximum observed drug concentration and total drug exposure were higher than those in the previous report, which might ...
# [5] = in vivo; cited from earlier work
# Description: as §6
substance,measurement,setting,value
insulin aspart [RD10046],C-peptide suppression after injection (reduction from baseline),C-peptide,30.2 ± 14.7%
same,TEAE Electrocardiogram high voltage: number of AEs (number of subjects with AEs),healthy Chinese males [1],1 (1)
same,TEAE Hyperuricemia: number of AEs (number of subjects with AEs),healthy Chinese males [1],1 (1)
same,TEAE Induration: number of AEs (number of subjects with AEs),healthy Chinese males [1],1 (1)
same,TEAE Pain in extremity: number of AEs (number of subjects with AEs),healthy Chinese males [1],1 (1)
same,TEAE Platelet count increased: number of AEs (number of subjects with AEs),healthy Chinese males [1],1 (1)
same,TEAE Refraction disorder: number of AEs (number of subjects with AEs),healthy Chinese males [1],1 (1)
same,"AUCGIR,0–10h, ratio of LS means (RD10046 divided by NovoRapid)",healthy Chinese males [2]; 90% CI in next column,0.97^a
same,"GIRmax, ratio of LS means (RD10046 divided by NovoRapid)",healthy Chinese males [2]; 90% CI in next column,0.98^a
same,"Tearly,50%, difference between medians (RD10046 - NovoRapid)",healthy Chinese males [2]; Hodges-Lehmann method,0.13^b min
same,"Tlate,50%, difference between medians (RD10046 - NovoRapid)",healthy Chinese males [2]; Hodges-Lehmann method,0.39^b min
same,"Tonset, difference between medians (RD10046 - NovoRapid)",healthy Chinese males [2]; Hodges-Lehmann method,0^b min
same,"tGIRmax, difference between medians (RD10046 - NovoRapid)",healthy Chinese males [2]; Hodges-Lehmann method,15^b min
same,"Tearly,50% (time of half-maximum GIR before GIRmax)",healthy Chinese males [2]; geometric mean (CV %),38 (21) min
same,"Tlate,50% (time of half-maximum GIR after GIRmax)",healthy Chinese males [2]; geometric mean (CV %),227 (21) min
same,"Tonset (first time of blood glucose declining to target level, 0.28 mmol/L less than baseline)",healthy Chinese males [2]; geometric mean (CV %),16 (28) min
same,tGIRmax (time of maximum glucose infusion rate),healthy Chinese males [2]; geometric mean (CV %),113 (33) min
same,"AUCGIR,0–10h (total glucose infusion during the clamp)",healthy Chinese males [2]; arithmetic mean,1558 mg/kg
same,GIRmax (maximum glucose infusion rate),healthy Chinese males [2]; arithmetic mean,7.65 mg/kg/min
same,"AUCGIR,0–10h (total glucose infusion during the clamp)",healthy Chinese males [2]; geometric mean (CV %),1493 (31) mg/kg
same,GIRmax (maximum glucose infusion rate),healthy Chinese males [2]; geometric mean (CV %),7.44 (23) mg/kg/min
same,t1/2,[3],39.2 (13.1) min
same,"AUCIAsp,0–10h, ratio of LS means (RD10046 divided by NovoRapid)",[3]; in vivo,1.02^a
same,"AUCIAsp,0–∞, ratio of LS means (RD10046 divided by NovoRapid)",[3]; in vivo,1.02
same,"Cmax, ratio of LS means (RD10046 divided by NovoRapid)",[3]; in vivo,1.01^a
same,Tmax,[3]; in vivo,"50.3 (20.4,60.9) min"
insulin aspart [NovoRapid],C-peptide suppression after injection (reduction from baseline),C-peptide,30.7 ± 13.3%
same,TEAE Blood bilirubin increased: number of AEs (number of subjects with AEs),healthy Chinese males [1],1 (1)
same,"Tearly,50% (time of half-maximum GIR before GIRmax)",healthy Chinese males [2]; geometric mean (CV %),38 (22) min
same,"Tlate,50% (time of half-maximum GIR after GIRmax)",healthy Chinese males [2]; geometric mean (CV %),226 (17) min
same,"Tonset (first time of blood glucose declining to target level, 0.28 mmol/L less than baseline)",healthy Chinese males [2]; geometric mean (CV %),15 (23) min
same,tGIRmax (time of maximum glucose infusion rate),healthy Chinese males [2]; geometric mean (CV %),104 (26) min
same,"AUCGIR,0–10h (total glucose infusion during the clamp)",healthy Chinese males [2]; arithmetic mean,1594 mg/kg
same,GIRmax (maximum glucose infusion rate),healthy Chinese males [2]; arithmetic mean,7.84 mg/kg/min
same,"AUCGIR,0–10h (total glucose infusion during the clamp)",healthy Chinese males [2]; geometric mean (CV %),1542 (27) mg/kg
same,GIRmax (maximum glucose infusion rate),healthy Chinese males [2]; geometric mean (CV %),7.64 (22) mg/kg/min
same,GIRmax,healthy Chinese males [4],6 to 9 mg/kg/min
same,total glucose infusion,healthy Chinese males [4],1300 to 1500 mg/kg
same,Tmax,[5],48 to 70 min
same,t1/2,[3],38.0 (9.38) min
same,Tmax,[3]; in vivo,"50.2 (30.2,75.3) min"
